In patent publication US8772277B2, “Nitrogen-containing heterocyclic compound” (Takeda Pharmaceutical Company Limited, priority 2011, dated 2014):
Where a name gives a salt, the structure may show the parent alone.

Assays:
[1] = molecular target: T1, GST-ERR-α ligand-binding domain (Homo sapiens, UniProt P11474); experiment: HTRF assay system using ERR-α ligand-binding domain (inverse agonist activity, biotinylated SRC-1 (676-700) peptide); type: biochemical; details: compound final concentration 30 μM, 665/620 ratio, no compound = 0%, 10 μM XCT-790 = 100%; for inhibition at 30 µM: read-out: inhibition rate (%) at 30 μM
T1 sequence (P11474 193-421 limits assumed): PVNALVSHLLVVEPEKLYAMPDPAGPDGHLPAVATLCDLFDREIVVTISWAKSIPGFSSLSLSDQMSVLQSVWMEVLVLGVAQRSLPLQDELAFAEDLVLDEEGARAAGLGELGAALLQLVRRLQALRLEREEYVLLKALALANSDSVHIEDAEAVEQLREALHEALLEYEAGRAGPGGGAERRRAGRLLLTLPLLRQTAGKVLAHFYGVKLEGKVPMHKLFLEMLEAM
Description: Experimental Example 1 Compound Evaluation in HTRF Assay System Using ERR-α Ligand-Binding Domain
An assay buffer (25 mM HEPES, 100 mM NaCl, 1 mM DTT, 0.1% BSA) containing 5 nM GST-ERR-α ligand-binding domain (final concentration 1.25 nM) was added to a 384 well plate, then 40 μM N-[5-(trifluoromethyl)-1,3,4-thiadiazol-2-yl]-2-cyano-3-[3-methoxy-4-[2,4-di(trifluoromethyl)benzyloxy]phenyl]propenamide (XCT-790) (final concentration 10 μM), or 120 μM compound (final concentration 30 μM) was added. Furthermore, an assay buffer containing XL665 conjugated Streptavidin, Eu^3+ criptate conjugated GST antibody and 200 nM biotinylated SRC-1 (676-700) (final concentration 100 nM) was added, and the mixture was reacted at room temperature for 2 hr. Using Multiplate reader Envision (Perkin Elmer Inc.), after excitation at 320 nm, fluorescence values at 620 nm and 665 nm were measured. The inverse agonist activity of the compound was calculated in percentage with the 665/620 ratio value inhibited by no addition of compound as 0%, and with addition of final concentration 10 μM of XCT-790 as 100%.

MDA-MB-231-luc cells = experiment: Antitumor test using MDA-MB-231-luc cells (subcutaneous transplant); type: in vivo, Balb/c nu/nu mice; details: change in tumor volume, vehicle group = 100%
Description: Experimental Example 3 Antitumor Test using MDA-MB-231-luc Cells
6-Week-old Balb/c nu/nu mice were transplanted subcutaneously with 5×10^6 cells/100 μL, and the mice were grouped according to the body weight and tumor volume after 1 to 2 weeks. Vehicle (0.5% MC) or a compound was administered orally to mice (6 mice per group). The administration was twice per day and performed continuously during the dosing period. Setting the change in tumor volume of the vehicle-treated group as 100%, the change rate in tumor volume of the compound-treated group (□/C %) was calculated.

[2] = molecular target: T2, fusion protein containing GAL4-DNA-binding domain and ERR full-length (Homo sapiens, UniProt P11474); experiment: Reporter assay system using 293T cells (GAL4-ERR luciferase, inverse agonist activity); type: cell-based; details: compound final concentration 3 μM, no compound = 0%, 10 μM XCT-790 = 100%; for inhibition at 3 µM: HEK-293T, read-out: inhibition rate (%) at 3 μM
T2 construct: expressed in transfected cells; host or cells: 293T cells
T2 sequence (P11474 1-423): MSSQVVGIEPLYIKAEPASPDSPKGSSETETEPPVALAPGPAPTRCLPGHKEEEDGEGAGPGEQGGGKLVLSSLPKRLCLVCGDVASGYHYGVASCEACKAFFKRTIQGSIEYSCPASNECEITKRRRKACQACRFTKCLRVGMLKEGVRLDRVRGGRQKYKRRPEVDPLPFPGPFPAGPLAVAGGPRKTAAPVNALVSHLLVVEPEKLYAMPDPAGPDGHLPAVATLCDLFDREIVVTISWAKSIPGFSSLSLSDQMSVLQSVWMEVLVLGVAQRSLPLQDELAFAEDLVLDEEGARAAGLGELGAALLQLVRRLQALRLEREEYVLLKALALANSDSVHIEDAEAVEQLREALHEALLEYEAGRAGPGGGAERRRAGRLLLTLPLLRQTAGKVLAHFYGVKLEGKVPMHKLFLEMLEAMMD
Description: Experimental Example 2 Compound Evaluation in Reporter Assay System Using 293T Cells
293T cells derived from human kidney were seeded in a 150 cm^2 flask by 6,000,000 cells, and cultured in a medium (DMEM medium containing 10% inactivated Fetal Bovine Serum sterile filtered (FBS), […] Gentamicin, 10 mM HEPES buffer (pH 7.4)) at 37° C. in the presence of 5% CO2 for 1 day.
Then, vector DNA having a gene encoding a fusion protein, containing GAL4-DNA-binding domain and ERR full-length and a vector DNA wherein luciferase gene is fused at the downstream of GAL4-binding-sequence were cotransfected by a lipofection method, and the cells were cultured at 37° C. in the presence of 5% CO2 for 1 day. The cells were recovered, sown in a 384 well plate by 15,000 cells, and cultured at 37° C. in the presence of 5% CO2 for 3 hrs. Furthermore, 50 μM N-[5-(trifluoromethyl)-1,3,4-thiadiazol-2-yl]-2-cyano-3-[3-methoxy-4-[2,4-di(trifluoromethyl)benzyloxy]phenyl]propenamide (XCT-790) (final concentration 10 μM) or 15 μM compound (final concentration 3 μM) was added, and the cells were cultured at 37° C. in the presence of 5% CO2 for 1 day. The luciferase activity was measured by using multiplate reader Envision (Perkin Elmer Inc.). The inverse agonist activity of the compound was calculated in percentage with the luciferase activity inhibited by no addition of compound as 0%, and with addition of final concentration 10 μM of XCT-790 as 100%.

[3] = 50 mg/kg orally twice per day, dosing period 14 days

| SMILES | inhibition at 30 µM [1] | inhibition at 3 µM [2] | further results |
| --- | --- | --- | --- |
| C#CCNC1=NC(=O)S/C1=C\C1CCN(Cc2ccc(C(F)(F)F)cc2C(F)(F)F)CC1 [Example 7, (5Z)-5-({1-[2,4-bis(trifluoromethyl)benzyl]piperidin-4-yl}methylidene)-4-(prop-2-yn-1-ylamino)-1,3-thiazol-2(5H)-one] | – | – | inhibition rate (%) at 30 μM [1]: 100%; T/C (%) (MDA-MB-231-luc cells; [3]): 24%; inhibition rate (%) at 3 μM [2]: 87% |
| C#CCNC1=NC(=O)S/C1=C\C1CCN(Cc2ccc(C(F)(F)F)cc2C(F)(F)F)CC1 [Example 10, (5Z)-5-({1-[2,4-bis(trifluoromethyl)benzyl]piperidin-4-yl}methylidene)-4-(prop-2-yn-1-ylamino)-1,3-thiazol-2(5H)-one fumarate] | – | – | inhibition rate (%) at 30 μM ([1]; fumarate): 102%; T/C (%) (MDA-MB-231-luc cells; 60 mg/kg orally twice per day, dosing period 15 days): 15%; inhibition rate (%) at 3 μM ([2]; fumarate): 93% |
| C#CCNC1=NC(=O)S/C1=C\C1CCN(Cc2ccc(C(F)(F)F)cc2C(F)(F)F)C1 (stereo not drawn) [Example 69, (5Z)-5-({1-[2,4-bis(trifluoromethyl)benzyl]pyrrolidin-3-yl}methylidene)-4-(prop-2-yn-1-ylamino)-1,3-thiazol-2(5H)-one maleate] | 67% | 87% | – |
| CC(C)(CO)CNC1=NC(=O)S/C1=C\C1CCN(Cc2ccc(C(F)(F)F)cc2C(F)(F)F)CC1 [Example 77, (5Z)-5-({1-[2,4-bis(trifluoromethyl)benzyl]piperidin-4-yl}methylidene)-4-[(3-hydroxy-2,2-dimethylpropyl)amino]-1,3-thiazol-2(5H)-one] | 109% | 82% | – |
| CC(C)(CO)CNC1=NC(=O)S/C1=C\C1CCN(Cc2ccc(C(F)(F)F)cc2C(F)(F)F)CC1 [Example 78, (5Z)-5-({1-[2,4-bis(trifluoromethyl)benzyl]piperidin-4-yl}methylidene)-4-[(3-hydroxy-2,2-dimethylpropyl)amino]-1,3-thiazol-2(5H)-one fumarate] | – | – | T/C (%) (MDA-MB-231-luc cells; [3]): 11% |
| CNC1=NC(=O)N(C)/C1=C\C1CCN(Cc2ccc(C(F)(F)F)cc2C(F)(F)F)CC1 [Example 80, (5Z)-5-({1-[2,4-bis(trifluoromethyl)benzyl]piperidin-4-yl}methylidene)-1-methyl-4-(methylamino)-1,5-dihydro-2H-imidazol-2-one] | 105% | 86% | – |
| CN(C)C(=O)[C@H](CO)NC1=NC(=O)S/C1=C\C1CCN(Cc2ccc(C(F)(F)F)cc2C(F)(F)F)CC1 [Example 132, N^2-[(5Z)-5-({1-[2,4-bis(trifluoromethyl)benzyl]piperidin-4-yl}methylidene)-2-oxo-2,5-dihydro-1,3-thiazol-4-yl]-N,N-dimethyl-L-serinamide] | 102% | 78% | – |
| CN(C)C(=O)CCNC1=NC(=O)S/C1=C\C1CCN(Cc2ccc(C(F)(F)F)cc2C(F)(F)F)CC1 [Example 140, N^3-[(5Z)-5-({1-[2,4-bis(trifluoromethyl)benzyl]piperidin-4-yl}methylidene)-2-oxo-2,5-dihydro-1,3-thiazol-4-yl]-N,N-dimethyl-β-alaninamide] | 100% | 90% | – |
| CCNC1=NC(=O)S/C1=C\C1CCN(Cc2ccc(C(F)(F)F)cc2C(F)(F)F)CC1 [Example 199, (5Z)-5-({1-[2,4-bis(trifluoromethyl)benzyl]piperidin-4-yl}methylidene)-4-(ethylamino)-1,3-thiazol-2(5H)-one] | 101% | 84% | – |
| CCCNC1=NC(=O)S/C1=C\C1CCN(Cc2ccc(C(F)(F)F)cc2C(F)(F)F)CC1 [Example 200, (5Z)-5-({1-[2,4-bis(trifluoromethyl)benzyl]piperidin-4-yl}methylidene)-4-(propylamino)-1,3-thiazol-2(5H)-one] | 101% | 88% | – |
